Measured values from doi:10.1101/2025.04.09.647920v1, “TIR immune signaling is blocked by phosphorylation to maintain growth in plants and animals” (biorxiv, 2025).

Molecular target: T1, RBA1 (Arabidopsis thaliana, UniProt F4HT77)
T1 construct: TIR-only protein, recombinant from insect cells
T1 sequence (F4HT77 1-363): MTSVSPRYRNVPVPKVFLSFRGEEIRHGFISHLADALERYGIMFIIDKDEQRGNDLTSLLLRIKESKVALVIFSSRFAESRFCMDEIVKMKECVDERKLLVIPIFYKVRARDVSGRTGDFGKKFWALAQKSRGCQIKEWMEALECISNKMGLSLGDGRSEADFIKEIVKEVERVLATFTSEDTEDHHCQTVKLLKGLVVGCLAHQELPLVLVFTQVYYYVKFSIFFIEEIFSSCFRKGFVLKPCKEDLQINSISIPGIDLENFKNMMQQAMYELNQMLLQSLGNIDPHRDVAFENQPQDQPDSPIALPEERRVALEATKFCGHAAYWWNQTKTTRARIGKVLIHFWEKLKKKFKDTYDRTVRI
Experiment: LC-MS/MS NADase assay
Assay type: biochemical
Details: in vitro

**Q.** With `NC(=O)c1ccc[n+]([C@@H]2O[C@H](COP(=O)(O)OP(=O)(O)OC[C@H]3O[C@@H](n4cnc5c(N)ncnc54)[C@H](O)[C@@H]3O)[C@@H](O)[C@H]2O)c1` [NAD^+] as the compound, how does the “LC-MS/MS NADase assay” value read?
**A.** Its value is “Recombinant RBA1 protein purified from insect cells cleaved NAD^+ into nicotinamide (Nam)”.
